Marks after values point to notes of the source that are not given here.
Columns and labels:
[1] = in vitro; compared with ATA; Kamat et al. 1997; cited from earlier work
swine [2] = experiment: 2000-2001 swine feed test: 24 hour raw pork loin pH; type: in vivo; settings: for 24 hour raw pork loin pH, Increase vs. Control: overall ave.
Excerpt: (§1) Applicants assessed the effects of antioxidant supplementation on meat quality in an experiment in which pork from pigs fed one of four dietary treatments was compared across three genetic lines differing in carcass leanness and intramuscular fat content. Ninety-six pigs were used in the test, thirty-two in each of the three genetic lines. Swine feeding was initiated in September 2000. At about 80 pounds body weight the 32 pigs of each of the three genetic lines were randomly allotted to individual pens. The pigs were fed corn/soy based diets formulated to provide adequate levels of all nutrients. In addition, one of four dietary treatments was assigned to each pen: control, 1,000 ppm NAC, 500 ppm LA and 150 ppm MT.
(§2) The pigs were harvested in November and December 2000 when they had reached an average weight of 260 pounds. Meat tissue quality evaluations occurred on Jan. 28, 2001. At the packing plant individual hot carcass weight, back fat depth and loin depth were measured and lean percent was calculated. Loin pH and loin color value (Minolta L*) were recorded 24 hours post mortem.

swine [3] = settings: administered to swine; Berg, NPPC Project No. 99-164; cited from earlier work
swine [4] = experiment: 2000-2001 swine feed test: raw pork loin color (Minolta L*); type: in vivo
Excerpt: as §1, §2
Minolta L* color value was measured objectively using a Minolta colorimeter. The Minolta L* value is an indication of the lightness of the pork loin. A lower value indicates a darker color and thus, higher quality.

Q: For `CC(C)=CCC/C(C)=C/CC/C(C)=C/CC[C@]1(C)CCc2cc(O)c(C)c(C)c2O1` [gamma-tocotrienol], which antioxidant activity [1] is on record?
A: The antioxidant activity was “greater antioxidant activity than ATA”.

Q: Which antioxidant activity [1] does the source give for alpha-tocotrienol here?
A: Its antioxidant activity is “greater antioxidant activity than ATA”.

Q: Which “24 hour raw pork loin pH” value (swine [2]; Line 1 ave., 500 ppm in diet) does the source give for `O=C(O)CCCCC1CCSS1` (stereo not drawn) [LA, alpha-lipoic acid] here?
A: The value was 6.00^b.

Q: What about the “24 hour raw pork loin pH” value (swine [2]; Line 2 ave., 500 ppm in diet) of the same compound?
A: The value was 5.90^b.

Q: What about the “24 hour raw pork loin pH” value (swine [2]; Line 3 ave., 500 ppm in diet) of the same compound?
A: The value was 5.99^c.

Q: What about the “24 hour raw pork loin pH” value (swine [2]; Overall ave. of three genetic lines, 500 ppm in diet) of the same compound?
A: Its value is 5.99^b.

Q: What about the “24 hour raw pork loin pH, Increase vs. Control” value (swine [2]; 500 ppm in diet) of the same compound?
A: Its value is 0.20.

Q: What about the Color Score (swine [3]) of the same compound?
A: The Color Score was “decrease”.

Q: What about the “Loin pH” value (swine [3]) of the same compound?
A: Its value is “increase”.

Q: What about the “raw pork loin color, Minolta L* value” (swine [4]; Line 1 ave., 500 ppm in diet) of the same compound?
A: The value was 52.0.

Q: And the “raw pork loin color, Minolta L* value” (swine [4]; Line 2 ave., 500 ppm in diet)?
A: Its value is 50.9.

Q: What about the “raw pork loin color, Minolta L* value” (swine [4]; Line 3 ave., 500 ppm in diet) of the same compound?
A: Its value is 49.1.

Q: What about the “raw pork loin color, Minolta L* value” (swine [4]; overall ave., 500 ppm in diet) of the same compound?
A: Its value is 50.7.

Q: With `CC(=O)N[C@@H](CS)C(=O)O` [NAC, N-acetylcysteine] as the compound, how does the “24 hour raw pork loin pH” value (swine [2]; Line 1 ave., 1,000 ppm in diet) read?
A: Its value is 6.07^b.

Q: And the “24 hour raw pork loin pH” value (swine [2]; Line 2 ave., 1,000 ppm in diet)?
A: The value was 5.78^a.

Q: What about the “24 hour raw pork loin pH” value (swine [2]; Line 3 ave., 1,000 ppm in diet) of the same compound?
A: The value was 5.93^c.

Q: And the “24 hour raw pork loin pH” value (swine [2]; Overall ave. of three genetic lines, 1,000 ppm in diet)?
A: The value was 5.93^b.

Q: What about the “24 hour raw pork loin pH, Increase vs. Control” value (swine [2]; 1,000 ppm in diet) of the same compound?
A: The value was 0.16.

Q: What about the “raw pork loin color, Minolta L* value” (swine [4]; Line 1 ave., 1,000 ppm in diet) of the same compound?
A: Its value is 49.7.

Q: And the “raw pork loin color, Minolta L* value” (swine [4]; Line 2 ave., 1,000 ppm in diet)?
A: Its value is 53.0.

Q: What about the “raw pork loin color, Minolta L* value” (swine [4]; Line 3 ave., 1,000 ppm in diet) of the same compound?
A: Its value is 49.0.

Q: What about the “raw pork loin color, Minolta L* value” (swine [4]; overall ave., 1,000 ppm in diet) of the same compound?
A: The value was 50.5.

From patent US20040266862A1, “Method of improving animal tissue quality by supplementing the animal diet with mixed tocotrienols” (priority 2003, published 2004)
